Test results published in ChEMBL document CHEMBL6127057, “Design and synthesis of Thieno[3, 2-b]pyridinone derivatives exhibiting potent activities against Mycobacterium tuberculosis in vivo by targeting Enoyl-ACP reductase” (Eur J Med Chem, 2024).
≈ marks a conversion by molar mass, not a printed value.

Legend:
Assay type in all cases: functional
[1] = tested on: Mycobacterium tuberculosis; assay: Antimycobacterial activity against compound resistant Mycobacterium tuberculosis 16-6B harboring InhA ATC to AGC (150S)
[2] = tested on: Mycobacterium tuberculosis; assay: Antimycobacterial activity against compound resistant Mycobacterium tuberculosis 16-1B harboring InhA TCG to TTG (S186L)
[3] = tested on: Mycobacterium tuberculosis; assay: Antimycobacterial activity against compound resistant Mycobacterium tuberculosis 8-8B harboring InhA CTG to GTG (L197V) phenotype
[4] = tested on: Mycobacterium tuberculosis; assay: Antimycobacterial activity against compound resistant Mycobacterium tuberculosis 16-4B harboring InhA GCC to GAC (A211D) phenotype
[5] = tested on: Mycobacterium tuberculosis; assay: Selectivity ratio of MIC for compound resistant Mycobacterium tuberculosis 16-6B harboring InhA ATC to AGC (150S) phenotype to MIC for wild-type Mycobacterium tuberculosis H37Rv
[6] = tested on: Mycobacterium tuberculosis; assay: Selectivity ratio of MIC for compound resistant Mycobacterium tuberculosis 16-1B harboring InhA TCG to TTG (S186L) phenotype to MIC for wild-type Mycobacterium tuberculosis H37Rv
[7] = tested on: Mycobacterium tuberculosis; assay: Selectivity ratio of MIC for compound resistant Mycobacterium tuberculosis 8-8B harboring InhA CTG to GTG (L197V) phenotype to MIC for wild-type Mycobacterium tuberculosis H37Rv
[8] = tested on: Mycobacterium tuberculosis; assay: Selectivity ratio of MIC for compound resistant Mycobacterium tuberculosis 16-4B harboring InhA GCC to GAC (A211D) phenotype to MIC for wild-type Mycobacterium tuberculosis H37Rv

| SMILES | MIC [1] | MIC [2] | MIC [3] | MIC [4] | Selectivity ratio [5] | Selectivity ratio [6] | Selectivity ratio [7] | Selectivity ratio [8] |
| --- | --- | --- | --- | --- | --- | --- | --- | --- |
| Cc1cccc(-c2c(O)c3scc(Br)c3[nH]c2=O)c1 | 16 µg/mL (≈ 47.6 µM) | 16 µg/mL (≈ 47.6 µM) | 32 µg/mL (≈ 95.2 µM) | >128 µg/mL | <=16 | <=16 | <=16 | <=16 |
| NNC(=O)c1ccncc1 [ISONIAZID] | 0.063 µg/mL (≈ 0.459 µM) | 0.063 µg/mL (≈ 0.459 µM) | 0.063 µg/mL (≈ 0.459 µM) | 0.063 µg/mL (≈ 0.459 µM) | – | – | – | – |
| CO[C@H]1/C=C/O[C@@]2(C)Oc3c(C)c(O)c4c(O)c(c(/C=N/N5CCN(C)CC5)c(O)c4c3C2=O)NC(=O)/C(C)=C\C=C\[C@H](C)[C@H](O)[C@@H](C)[C@@H](O)[C@@H](C)[C@H](OC(C)=O)[C@@H]1C [RIFAMPIN] | 0.063 µg/mL (≈ 0.0766 µM) | 0.063 µg/mL (≈ 0.0766 µM) | 0.063 µg/mL (≈ 0.0766 µM) | 64 µg/mL (≈ 77.8 µM) | – | – | – | – |
